Measurements as given in patent publication US20110112086A1, “PYRIDINONE ANALOGS” (CYLENE PHARMACEUTICALS, INC., priority 2006, published 2011).
Each block holds one molecule with its values, some of them ahead of it.

Key:
HCT-116 = HCT-116 MTS cell viability assay; type: cell-based; settings: Homo sapiens, HCT-116 cells
nucleolin = biological target: T1, nucleolin (Homo sapiens, UniProt P19338); test: Nucleolin/nucleic acid ligand gel retardation binding assay; set-up: key: A “+” represents the weakest nucleolin affinity; a “++++” represents the strongest nucleolin affinity; settings: relative affinity of nucleic acid ligand for recombinant nucleolin (MBP fusion)
T1 construct: without the N-terminal acidic stretches domain
Method: The following assays can be used to assess the effects of compounds on interactions between nucleolin and nucleic acid ligands capable of forming quadruplex (QP) and hairpin (HP) secondary structures. Nucleic acid ligands tested were a cMyc QP DNA having nucleotide sequence 5′-[…]-3′ and a HP pre-rRNA region to which nucleolin binds, having the sequence 5′-[…]-3′. In the assays, recombinant nucleolin (˜250 nM), which has been fused to maltose binding protein, and has the sequence under accession number NM_005381 without the N-terminal acidic stretches domain, is incubated with each of the two ^32P-labeled nucleic acid ligands (10 or 250 nM). Nucleolin and the nucleic acid ligand are incubated in the presence or absence of a test compound 7 in an incubation buffer (12.5 mM Tris, pH 7.6, 60 mM KCl, 1 mM MgCl2, 0.1 mM EDTA, 1 mM DTT, 5% glycerol, 0.1 mg/ml BSA) for 30 minutes at room temperature.
The resulting complexes are separated on a 6% DNA retardation gel using 0.5×TBE with 20 mM KCl as a running buffer. The assay also can be conducted using nucleic acid ligands derived from human ribosomal DNA, whereby one can identify a compound that selectively modulates formation of a nucleolin/nucleic acid complex that depends on the conformation of the nucleic acid. Sequences of suitable nucleic acids are shown in the preceding example. […] A “+” represents the weakest nucleolin affinity and a “++++” represents the strongest nucleolin affinity. […] Using nucleic acids such as these having known conformational properties, one can identify a compound such as the compounds described herein that selectively interferes with binding of nucleolin to a particular quadruplex structure.

T1 sequence (P19338 284-710 limits assumed): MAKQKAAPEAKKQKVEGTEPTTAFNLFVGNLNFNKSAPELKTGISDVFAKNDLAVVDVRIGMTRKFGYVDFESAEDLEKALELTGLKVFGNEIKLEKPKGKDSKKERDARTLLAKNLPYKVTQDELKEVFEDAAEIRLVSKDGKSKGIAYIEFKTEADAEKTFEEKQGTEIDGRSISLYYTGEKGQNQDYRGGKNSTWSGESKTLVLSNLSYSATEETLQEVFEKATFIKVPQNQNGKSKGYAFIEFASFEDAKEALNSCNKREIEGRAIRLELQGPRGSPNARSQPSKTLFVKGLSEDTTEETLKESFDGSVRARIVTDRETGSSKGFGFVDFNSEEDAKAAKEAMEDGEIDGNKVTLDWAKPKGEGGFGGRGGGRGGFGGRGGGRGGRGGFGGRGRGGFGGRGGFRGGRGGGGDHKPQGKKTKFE

IC50 (HCT-116): 10000 nM
Molecule: CCOC(=O)c1c(=O)c2ccsc2n2c1[nH]c1ccccc12

Molecule: 7733T: nucleic acid ligand derived from human ribosomal DNA: GGGAGGGGCACGGGCCGGGGGCGGGACGGG (chemistry not given here) [Compound 7733T]
Affinity for Nucleolin (nucleolin): +

Molecule: 8749NT: nucleic acid ligand derived from human ribosomal DNA: GGGAGGGCGCGCGGGTCGGGG (chemistry not given here) [Compound 8749NT]
Affinity for Nucleolin (nucleolin): +

IC50 (HCT-116): 2050 nM
Molecule: O=C(NCc1ccccn1)c1c(=O)c2ccsc2n2c1sc1ccccc12

Molecule: 6183NT: nucleic acid ligand derived from human ribosomal DNA: GGGTCGGGGGCGGTGGTGGGCCCGCGGGGG (chemistry not given here) [Compound 6183NT]
Affinity for Nucleolin (nucleolin): +

IC50 (HCT-116): 300 nM
Molecule: Cn1c2cc3ccccc3cc2n2c3sccc3c(=O)c(C(=O)NCCN3CCCC3)c12

Molecule: 8511NT: nucleic acid ligand derived from human ribosomal DNA: GGGGGTGGGCGGGCGGGGCCGGGGGTGGG (chemistry not given here) [Compound 8511NT]
Affinity for Nucleolin (nucleolin): ++++

Molecule: 1196NT: nucleic acid ligand derived from human ribosomal DNA: GGGTGGACGGGGGGGCCTGGTGGGG (chemistry not given here) [Compound 1196NT]
Affinity for Nucleolin (nucleolin): +

IC50 (HCT-116): 3200 nM
Molecule: Cn1c2ccccc2n2c3sccc3c(=O)c(C(=O)NCCN3CCCC3)c12

IC50 (HCT-116): 2100 nM
Molecule: O=C(NCCN1CCOCC1)c1c(=O)c2ccsc2n2c1sc1ccccc12

IC50 (HCT-116): 50 nM
Molecule: O=C(NCCN1CCCC1)c1c(=O)c2cc(N3CCCC3)sc2n2c1sc1ccccc12

IC50 (HCT-116): 10000 nM
Molecule: CCOC(=O)c1c(=O)c2cc(Br)sc2n2c1sc1ccccc12

IC50 (HCT-116): 10000 nM
Molecule: CCOC(=O)c1c(=O)c2cc(Cl)sc2n2c1sc1ccccc12

IC50 (HCT-116): 9800 nM
Molecule: CCOC(=O)c1c(=O)c2ccsc2n2c1sc1ccccc12

IC50 (HCT-116): 10 nM
Molecule: O=C(NCCN1CCCC1)c1c(=O)c2cc(Cl)sc2n2c1sc1ccccc12

IC50 (HCT-116): 40 nM
Molecule: O=C(NCCN1CCCC1)c1c(=O)c2ccsc2n2c1sc1ccccc12

IC50 (HCT-116): 4000 nM
Molecule: CCOC(=O)c1c(=O)c2ccsc2n2c1[nH]c1cc3ccccc3cc12

Molecule: 11028NT: nucleic acid ligand derived from human ribosomal DNA: GGGGCGCGGCGGGGGGAGAAGGGTCGGGGCGGCAGGGG (chemistry not given here) [Compound 11028NT]
Affinity for Nucleolin (nucleolin): +

B1: 8762NT: nucleic acid ligand derived from human ribosomal DNA: CGGAGGGCGCGCGGGTCGGGGCGGCGGCGGCGGCGGCGGTGGCGGCGGCGGCGGGGGCGGCGGG (nucleic acid)
DNA: CGGAGGGCGCGCGGGTCGGGGCGGCGGCGGCGGCGGCGGTGGCGGCGGCGGCGGGGGCGGCGGG
modifications: chemistry not given here
Affinity for Nucleolin (nucleolin): ++++
